Results from PubChem BioAssay (NCI).
Several values for one entry are separate records, joined by “and”; a condition that tells them apart may be missing. Equal entries are not always repeated.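 Grown in 96-well plates, cells were treated for 48 hours with each compound at five concentrations. Insufficient inhibition: endpoint recorded as highest concentration tested. At the GI50, growth is halved. At the TGI there is no net growth.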

Tests used:
Test in all cases: NCI-60 cell line screen, 48 h
[1] = system: 786-0 renal
[2] = system: DU-145 prostate
[3] = system: EKVX NSCLC
[4] = system: HCC-2998 colon
[5] = system: HCT-116 colon
[6] = system: NCI-H23 lung
[7] = system: RPMI-8226 leukemia
[8] = system: SF-295 CNS
[9] = system: SK-MEL-5 melanoma
[10] = system: T-47D breast

Row | Structure (SMILES) | GI50 [1] [µM] | TGI [1] | GI50 [2] [µM] | TGI [2] [µM] | GI50 [3] [µM] | TGI [3] | GI50 [4] [µM] | TGI [4] [µM] | TGI [5] [µM] | GI50 [6] [µM] | TGI [6] [µM] | GI50 [7] [µM] | TGI [7] | TGI [8] | GI50 [9] | TGI [9] | GI50 [10] [µM] | TGI [10] | GI50 [5] [µM] | GI50 [8]
1 | Nc1nc(N)c(N=O)c(OCC2CCCCC2)n1 | 20.9 | > 100 µM and 84.1 µM | 5.93 | > 100 | 27 | > 94.5 µM and 64.2 µM | 22.5 | > 100 | > 100 | 9.71 | > 100 | 9.17 | 98.7 µM and 36.1 µM | 61.2 µM and 77.2 µM | 13.7 µM | 60 µM and 42 µM | 4.09 | > 58.6 µM and 23.9 µM | – | –
2 | O=C(c1cccnc1)c1cc(-c2ccccn2)c(=O)n2ccccc12 | > 100 | > 100 µM | > 100 | > 100 | > 100 | > 100 µM | > 100 | > 100 | > 100 | > 100 | > 100 | > 100 | > 100 µM | > 100 µM | > 100 µM | > 100 µM | > 100 | > 100 µM | > 100 | > 100 µM
3 | OCC1OC(n2cnc3c(=S)nc[nH]c32)C(O)C1O (stereo not given) | 2.71 | > 2500 µM | – | > 2500 | > 100 | > 2500 µM | 2.46 | > 2500 | > 2500 | 4.15 | > 2500 | 2.57 | > 2500 µM | > 2500 µM | 9.5 µM | > 2500 µM | 2.95 | > 2500 µM | 2.78 | 3.49 µM
4 | O=C(CCCSc1nc(-c2ccccc2)cc(-c2ccc(Cl)cc2)n1)NO | 1.47 | 13.3 µM | 1.39 | 8.94 | 1.8 | 11.5 µM | 3.03 | 13.2 | 13.1 | 2.44 | 10.6 | 1.65 | 8.42 µM | 5.71 µM | 2.26 µM | 5.45 µM | 1.92 | 16.2 µM | 1.04 | 2.03 µM
5 | O=C(CN1CCN(c2ccccc2)CC1)N1CCN(c2nnc(-c3ccc(Cl)cc3)c(-c3ccc(Cl)cc3)n2)CC1 | 11.6 | 53 µM | 29.2 | > 100 | 21.6 | > 100 µM | 16.9 | > 100 | 16.2 | 23.4 | > 100 | 3.88 | 20 µM | > 100 µM | 6.03 µM | 29.6 µM | 3.51 | 28.9 µM | 4.26 | 36 µM
6 | CCOC(=O)c1nc(Nc2ccc(Cl)cc2)c2ccccc2n1 | 10.4 | 21.4 µM | 7.39 | 15.1 | 13 | 44.1 µM | 8.46 | 15.6 | > 50 | 10.7 | 18.9 | 11.8 | 30.2 µM | 15.6 µM | 7.19 µM | 13.8 µM | 8.36 | 22.5 µM | 25.1 | 8.09 µM
7 | c1ccc(CSc2nnc3c4ccccc4c4ccccc4c3n2)cc1 | – | > 92.5 µM | – | > 100 | – | > 100 µM | – | > 100 | > 100 | – | > 100 | – | > 100 µM | 62.3 µM | – | > 100 µM | – | > 100 µM | – | –
8 | Cc1cn2c(/C=N/Nc3ccccn3)c(-c3ccc(Cl)c([N+](=O)[O-])c3)nc2s1 | 18.5 | > 50 µM | 6.39 | 29.8 | 21.6 | > 50 µM | > 50 | > 50 | 18.4 | 10.9 | 27.2 | 30.2 | > 50 µM | > 50 µM | 43.9 µM | > 50 µM | > 50 | > 50 µM | 8.56 | 23 µM
9 | c1ccc(P(CCP(CCP(c2ccccc2)c2ccccc2)c2ccccc2)CCP(c2ccccc2)c2ccccc2)cc1 (stereo not given) | – | 3.21 µM | – | > 10 | > 10 | > 10 µM | – | 4.52 | > 10 | – | > 10 | – | > 10 µM | > 10 µM | > 10 µM and 4.12 µM | > 10 µM | – | 4.79 µM | – | > 10 µM and 3.56 µM
10 | Nc1n[nH]c2ccc([C@@H]3Nc4ccc5[nH]ncc5c4[C@H]4C5C=CC(C5)[C@@H]34)cc12 (stereo not given in full) | 0.6 | 16.8 µM | 0.445 | > 30.8 | 0.505 | 43.2 µM | 0.378 | 12.1 | 3.33 | 0.446 | 14 | 0.355 | 11.5 µM | 4.38 µM | 0.338 µM | 1.58 µM | 10.9 | 77.1 µM | 0.351 | 0.172 µM
